Source: patent US20110028686A1, “Protein binding miniature proteins” (Yale University, priority 2000, published 2011)
Ends that are not written are not given here. Peptide text beside a SMILES is read from it.

Legend:
[1] = Circular dichroism thermal denaturation; type: physicochemical; details: far UV circular dichroism at 222 nm
Experimental: Spectra were acquired in 0.5×PBS at 25° C. using a Aviv Model 62DS spectrometer. […] Each data set represents the average of 10 scans. Spectra were background corrected but were not smoothed. (b) Temperature dependence of the CD spectrum of pP53-05. ΘMRE is in units of deg·cm^2·dmol^−1.
Circular dichroism spectra were recorded in PBS on an Aviv 202 CD Spectrometer and were background corrected but not smoothed. Wavelength scans were performed at 4° C. between 200 and 260 nm at 1 nm intervals with a recording time of five seconds at each interval. Bak (72-94), 4099, 4100, 4101, 4102 were used at concentrations of 0.028 mM, 0.0069 mM, 0.0119 mM, 0.014 mM and 0.016 mM respectively. Thermal denaturation curves were measured at 222 nm between 4-98° C. with 2° C. steps and one minute equilibration at each temperature. Peptides were used at the highest concentrations used for the wavelength scans described above. Mean residue elliptcity and percent helicity were calculated from the value at 222 nm after background correction.

GST-MDM2 [2] = biological target: T1, GST-MDM2 (Homo sapiens, UniProt Q00987); test: Fluorescence polarization, affinity for GST-MDM2; type: binding; details: fluorescein-labeled peptide; read-out: equilibrium dissociation constant (Kd) of the peptide·GST-MDM2 complex
T1 sequence (Q00987 whole entry): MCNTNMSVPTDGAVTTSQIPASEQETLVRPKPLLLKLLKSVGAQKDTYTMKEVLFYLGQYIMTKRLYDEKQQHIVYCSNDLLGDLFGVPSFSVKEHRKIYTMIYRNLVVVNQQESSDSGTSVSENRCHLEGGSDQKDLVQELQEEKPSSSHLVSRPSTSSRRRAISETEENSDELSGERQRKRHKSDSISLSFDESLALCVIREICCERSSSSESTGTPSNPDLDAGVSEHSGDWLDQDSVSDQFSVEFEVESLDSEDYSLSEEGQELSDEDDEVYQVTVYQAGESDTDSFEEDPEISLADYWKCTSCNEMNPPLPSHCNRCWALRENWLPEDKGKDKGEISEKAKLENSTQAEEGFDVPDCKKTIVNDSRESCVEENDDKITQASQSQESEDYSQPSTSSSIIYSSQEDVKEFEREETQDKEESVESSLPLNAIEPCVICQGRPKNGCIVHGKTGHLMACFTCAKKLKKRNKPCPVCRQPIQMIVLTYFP

GST-MDM2 [3] = test: Fluorescence polarization, affinity for GST-MDM2; type: binding, human; details: calmodulin, Fos, carbonic anhydrase, protein kinase A vs GST-MDM2
GST-MDM2 [4] = biological target: T1, GST-MDM2; test: Competition fluorescence polarization, p53AD-Flu bound to GST-MDM2; type: binding; details: p53AD-Flu 10 nM, GST-MDM2 400 nM; Cheng-Prusoff
Calmodulin [5] = biological target: T2, Calmodulin (Homo sapiens, UniProt P0DP23); test: Fluorescence polarization specificity, calmodulin; type: binding
T2 construct: purchased Sigma
Experimental: (§1) FIG. 3—Fluorescence polarization analysis of the affinity of GST-MDM2 for selected peptides and the affinity of pP53-05 for selected proteins. […] Each point represents the average of at least three trials. Error bars represent the standard error. Kd values were calculated as described in Heyduk, et al., Proc Natl Acad Sci USA 1990, 87, 1744. […] Plot illustrates the fraction of p53AD-Flu (10 nM) bound to GST-MDM2 (400 nM) at equilibrium as a function of added pP53-05 (4.5 μM-0.18 μM). Ki was calculated using the Cheng-Prusoff equation.
(§2) The specificity of pP53-05 was evaluated by measuring its affinity for several receptors and enzymes that bind helical or hydrophobic peptides or small molecules (FIG. 3).

bZIP region of Fos = biological target: T3, bZIP region of Fos (Homo sapiens, UniProt P01100); test: Fluorescence polarization specificity, Fos; type: binding
T3 construct: the bZIP region of Fos, which forms dimeric complexes with other bZIP proteins
T3 sequence (P01100 137-200 limits assumed): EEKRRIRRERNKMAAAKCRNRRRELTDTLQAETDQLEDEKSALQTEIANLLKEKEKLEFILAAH
Experimental: as §1, §2

carbonic anhydrase = test: Fluorescence polarization specificity, carbonic anhydrase; type: binding
Experimental: as §1, §2

protein kinase A = protein kinase A (Homo sapiens, UniProt P17612); test: Fluorescence polarization specificity, protein kinase A; type: binding
Experimental: as §1, §2

Calmodulin [6] = biological target: T2, Calmodulin; test: Calmodulin binding by fluorescence emission
Carbonic anhydrase II = biological target: T4, Carbonic anhydrase II (Homo sapiens, UniProt P00918); test: Carbonic anhydrase II binding by fluorescence emission; details: PBS
T4 construct: purchased Sigma

Bcl-2 = Bcl-2 (Homo sapiens, UniProt P10415); test: Bcl-2 binding by fluorescence emission of fluorescein-labeled peptide; details: read-out: Kd for binding to Bcl-2, 4° C., PBS
Bcl-2, sequence (P10415 1-205): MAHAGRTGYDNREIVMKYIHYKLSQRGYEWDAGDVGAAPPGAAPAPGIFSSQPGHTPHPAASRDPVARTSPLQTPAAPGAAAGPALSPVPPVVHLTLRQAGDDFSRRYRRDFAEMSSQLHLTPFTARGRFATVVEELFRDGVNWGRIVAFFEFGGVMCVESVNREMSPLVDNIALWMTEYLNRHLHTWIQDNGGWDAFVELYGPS

KIX = details: various techniques; isothermal titration calorimetry for KID(129-149)^P; read-out: previously reported Kd of KID^P·KIX complexes; cited from earlier work
KIX, sequence (Q92793 587-673 limits assumed): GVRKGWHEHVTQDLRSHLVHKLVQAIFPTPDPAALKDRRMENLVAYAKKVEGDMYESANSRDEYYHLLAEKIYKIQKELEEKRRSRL

Kd (Calmodulin [6]) | Kd (Carbonic anhydrase II) | Kd (Bcl-2) | Compound | Tm, cooperative thermal melt [1] | Kd (GST-MDM2 [2]) | ΔΔG between stabilities of non-target protein complexes and pP53-05·GST-MDM2 (GST-MDM2 [3]) | Ki (GST-MDM2 [4]) | Kd (Calmodulin [5]) | Kd (bZIP region of Fos) | Kd (carbonic anhydrase) | Kd (protein kinase A) | Kd (KIX)
 |  |  | CC[C@H](C)[C@H](NC(=O)[C@H](CC(C)C)NC(=O)[C@H](CC(=O)O)NC(=O)[C@H](CCC(=O)O)NC(=O)[C@@H](NC(=O)[C@@H]1CCCN1C(=O)[C@H](C)NC(=O)[C@H](CC(=O)O)NC(=O)[C@H](CC(=O)O)NC(=O)CNC(=O)[C@@H]1CCCN1C(=O)[C@H](Cc1ccc(O)cc1)NC(=O)[C@@H](NC(=O)[C@@H]1CCCN1C(=O)[C@H](CCC(N)=O)NC(=O)[C@H](CO)NC(=O)[C@@H]1CCCN1C(=O)CN)[C@@H](C)O)C(C)C)C(=O)N[C@@H](CCCNC(=N)N)C(=O)N[C@@H](Cc1ccccc1)C(=O)N[C@@H](CCCCN)C(=O)N[C@@H](Cc1ccccc1)C(=O)N[C@@H](CC(C)C)C(=O)N[C@@H](CC(C)C)C(=O)N[C@@H](CCC(N)=O)C(=O)N[C@@H](Cc1c[nH]c2ccccc12)C(=O)N[C@@H](Cc1ccc(O)cc1)C(=O)N[C@@H](CC(C)C)C(=O)N[C@@H](CC(C)C)C(=O)N[C@@H](C)C(=O)N[C@@H](CC(C)C)C(N)=O [pP53-05] (H-GPSQPTYPGDDAPVEDLIRFKFLLQWYLLAL-NH2; N-terminus and C-terminus assumed) | 47 °C | 0.099 ± 0.011 µM | 2.8-4.4 kcal·mol^−1 | 0.722 µM | > 275 µM | 42 µM | 298 µM | 16 µM | 
25 ± 4 µM | 8.6 µM | 0.352 ± 0.033 µM | CC[C@H](C)[C@H](NC(=O)[C@H](CC(C)C)NC(=O)[C@H](CC(=O)O)NC(=O)[C@H](CCC(=O)O)NC(=O)[C@@H](NC(=O)[C@@H]1CCCN1C(=O)[C@H](C)NC(=O)[C@H](CC(=O)O)NC(=O)[C@H](CC(=O)O)NC(=O)CNC(=O)[C@@H]1CCCN1C(=O)[C@H](Cc1ccc(O)cc1)NC(=O)[C@@H](NC(=O)[C@@H]1CCCN1C(=O)[C@H](CCC(N)=O)NC(=O)[C@H](CO)NC(=O)[C@@H]1CCCN1C(=O)CN)[C@@H](C)O)C(C)C)C(=O)N[C@@H](CCCNC(=N)N)C(=O)N[C@@H](Cc1ccccc1)C(=O)N[C@H](C(=O)NCC(=O)N[C@@H](CCCNC(=N)N)C(=O)N[C@@H](CC(C)C)C(=O)N[C@@H](CC(C)C)C(=O)N[C@@H](C)C(=O)N[C@@H](Cc1ccc(O)cc1)C(=O)N[C@@H](Cc1ccccc1)C(=O)NCC(=O)N[C@@H](CC(=O)O)C(=O)N[C@H](C(=O)N[C@H](C(=O)N[C@@H](CC(N)=O)C(=O)N[C@@H](CCCNC(=N)N)C(=O)N[C@@H](CCCNC(=N)N)C(N)=O)[C@@H](C)CC)[C@@H](C)O)C(C)C [p4099] (H-GPSQPTYPGDDAPVEDLIRFVGRLLAYFGDTINRR-NH2) | approximately 65 °C |  |  |  |  |  |  |  | 
 |  |  | KID(129-149)^P: phosphorylated CREB KID residues 129-149, literature (SDAPGVPRIEEEKSEEETSAP; also: phosphorylated, sites not given here; UniProt P16220 129-149, looked up, fragment) |  |  |  |  |  |  |  |  | 80 µM
